# Source: paper PMC6002837 (Bioorganic & medicinal chemistry letters, 2015)
# Molecular target: T1, Rtt109–Vps75 (Saccharomyces cerevisiae, UniProt Q07794)
# T1 sequence (Q07794 1-436): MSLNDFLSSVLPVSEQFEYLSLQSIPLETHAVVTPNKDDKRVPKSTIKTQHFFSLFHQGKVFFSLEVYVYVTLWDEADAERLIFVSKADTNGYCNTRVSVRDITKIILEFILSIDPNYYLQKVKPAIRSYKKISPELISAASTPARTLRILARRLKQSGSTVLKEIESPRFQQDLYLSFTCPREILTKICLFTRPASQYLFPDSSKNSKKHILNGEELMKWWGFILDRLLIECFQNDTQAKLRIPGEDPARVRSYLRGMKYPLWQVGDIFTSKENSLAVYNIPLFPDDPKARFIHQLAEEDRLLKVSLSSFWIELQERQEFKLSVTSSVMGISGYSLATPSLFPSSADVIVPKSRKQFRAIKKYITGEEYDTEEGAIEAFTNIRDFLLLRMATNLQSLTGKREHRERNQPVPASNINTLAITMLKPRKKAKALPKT
# T1 sequence (P53853 1-264 partner): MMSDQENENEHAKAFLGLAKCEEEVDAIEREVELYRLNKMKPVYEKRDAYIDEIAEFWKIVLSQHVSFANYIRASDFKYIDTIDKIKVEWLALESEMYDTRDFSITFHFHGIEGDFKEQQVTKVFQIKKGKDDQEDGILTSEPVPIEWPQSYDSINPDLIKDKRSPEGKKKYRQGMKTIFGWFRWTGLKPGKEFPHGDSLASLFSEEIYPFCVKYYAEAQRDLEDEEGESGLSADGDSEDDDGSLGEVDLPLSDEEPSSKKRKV
# Assay: in vitro [3H]-acetyl-CoA HAT assay, Rtt109–Vps75
# Format: biochemical, yeast
# Conditions: radiolabeled HAT assay; p = 0.61, n = 3 for 1a
structure (smiles),measurement,value
"CCN(CC)c1ccc2c(C)c(-c3ccc(N4C(=O)C=CC4=O)cc3)c(=O)oc2c1 [CPM, N-[4-(7-diethylamino-4-methylcoumarin-3-yl)phenyl]maleimide]",difference in IC50 values in presence or absence of DTT and BSA,significant decrease in IC50
